Data as given in patent US20250206732A1, “COMPOUNDS AND METHODS FOR THE TARGETED DEGRADATION OF KRAS” (Arvinas Operations, Inc., priority 2022, published 2025).

Molecular target: T1, AsPC-1 HiBiT-KRASG12D (Homo sapiens, UniProt P01116, G12D)
T1 construct: insert the HiBiT tag onto the N-terminus of one or more of the endogenous KRAS alleles; endogenous in cells; host or cells: AsPC-1 (ATCC CRL-1682), CRISPR-Cas9 knock-in clone, one tagged allele
Assay: HiBiT degradation assay (G12D), AsPC-1 HiBiT-KRASG12D cells
Assay type: cell-based
Details: 24 hours treatment; for Dmax: ASPC1, AsPC-1 HiBiT-KRASG12D cells, maximum degradation observed; for DC50: AsPC-1 HiBiT-KRASG12D cells, HiBiT luminescence
Summary of the method: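 HiBiT-KRAS abundance was read as Nano-Glo HiBiT lytic luminescence (45 min, room temperature) after a PBS wash. Before that, a 4 h alamar blue fluorescence read, normalized to DMSO, monitored viability. Treatment lasted 24 hours at 37 °C, in triplicate, using AsPC-1 cells with endogenous N-terminally HiBiT-tagged KRAS G12D.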

T1 sequence (P01116 1-188 isoform P01116-2 G12D): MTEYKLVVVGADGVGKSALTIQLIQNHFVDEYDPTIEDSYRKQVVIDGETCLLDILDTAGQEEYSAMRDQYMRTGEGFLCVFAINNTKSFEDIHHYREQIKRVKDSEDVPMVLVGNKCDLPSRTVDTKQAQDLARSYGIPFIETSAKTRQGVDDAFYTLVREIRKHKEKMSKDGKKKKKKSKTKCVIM

Row | Structure (SMILES) | Dmax | DC50
1 | CCc1cccc2cc(O)cc(-c3ncc4c(N5CC6CCC(C5)N6)nc(OC[C@@H]5CC[C@@H](COC(=O)N6CCN(c7cc([C@H](C(=O)N8C[C@H](O)C[C@H]8C(=O)N[C@@H](C)c8ccc(-c9scnc9C)cc8)C(C)C)on7)C[C@@H]6C)N5C)nc4c3F)c12 [Compound 261, [(2S,5S)-5-{[(4-{3,8-diazabicyclo[3.2.1]octan-3-yl}-7-(8-ethyl-3-hydroxynaphthalen-1-yl)-8-fluoropyrido[4,3-d]pyrimidin-2-yl)oxy]methyl}-1-methylpyrrolidin-2-yl]methyl (2S)-4-{5-[(2R)-1-[(2S,4R)-4-hydroxy-2-{[(1S)-1-[4-(4-methyl-1,3-thiazol-5-yl)phenyl]ethyl]carbamoyl}pyrrolidin-1-yl]-3-methyl-1-oxobutan-2-yl]-1,2-oxazol-3-yl}-2-methylpiperazine-1-carboxylate] | 80 to 100% | < 600 nM
2 | CCc1cccc2cc(O)cc(-c3ncc4c(N5CC6CCC(C5)N6)nc(OCCN5CCC(F)(CN6CCN(c7cc([C@H](C(=O)N8C[C@H](O)C[C@H]8C(=O)N[C@@H](C)c8ccc(-c9scnc9C)cc8)C(C)C)on7)CC6)CC5)nc4c3F)c12 [Compound 262] | 80 to 100% | < 600 nM
3 | CCc1cccc2cc(O)cc(-c3ncc4c(N5CC6CCC(C5)N6)nc(OCCN5CCC(CC6(F)CN(CC(=O)N[C@H](C(=O)N7C[C@H](O)C[C@H]7C(=O)N[C@@H](C)c7ccc(-c8scnc8C)cc7)C(C)(C)C)C6)CC5)nc4c3F)c12 [Compound 263, (2S,4R)-1-[(2S)-2-(2-{3-[(1-{2-[(4-{3,8-diazabicyclo[3.2.1]octan-3-yl}-7-(8-ethyl-3-hydroxynaphthalen-1-yl)-8-fluoropyrido[4,3-d]pyrimidin-2-yl)oxy]ethyl}piperidin-4-yl)methyl]-3-fluoroazetidin-1-yl}acetamido)-3,3-dimethylbutanoyl]-4-hydroxy-N-[(1S)-1-[4-(4-methyl-1,3-thiazol-5-yl)phenyl]ethyl]pyrrolidine-2-carboxamide] | 80 to 100% | < 600 nM
4 | CCc1cccc2cc(O)cc(-c3ncc4c(N5CCCCCC5)nc(OC[C@@H]5CC[C@@H](COC(=O)N6CCN(c7cc([C@H](C(=O)N8C[C@H](O)C[C@H]8C(=O)N[C@@H](C)c8ccc(-c9scnc9C)cc8)C(C)C)on7)CC6)N5C)nc4c3F)c12 [Compound 272, [(2S,5S)-5-[[4-(azepan-1-yl)-7-(8-ethyl-3-hydroxy-1-naphthyl)-8-fluoro-pyrido[4,3-d]pyrimidin-2-yl]oxymethyl]-1-methyl-pyrrolidin-2-yl]methyl 4-[5-[(1R)-1-[(2S,4R)-4-hydroxy-2-[[(1S)-1-[4-(4-methylthiazol-5-yl)phenyl]ethyl]carbamoyl]pyrrolidine-1-carbonyl]-2-methyl-propyl]isoxazol-3-yl]piperazine-1-carboxylate] | 60 to 80% | < 600 nM
5 | CCc1cccc2cc(O)cc(-c3ncc4c(N5CC6CCC(C5)N6)nc(OCCN5CCC(CC6CN(CC(=O)N[C@H](C(=O)N7C[C@H](O)C[C@H]7C(=O)N[C@@H](C)c7ccc(-c8scnc8C)cc7)C(C)(C)C)C6)CC5)nc4c3F)c12 [Compound 273, (2S,4R)-1-[(2S)-2-(2-{3-[(1-{2-[(4-{3,8-diazabicyclo[3.2.1]octan-3-yl}-7-(8-ethyl-3-hydroxynaphthalen-1-yl)-8-fluoropyrido[4,3-d]pyrimidin-2-yl)oxy]ethyl}piperidin-4-yl)methyl]azetidin-1-yl}acetamido)-3,3-dimethylbutanoyl]-4-hydroxy-N-[(1S)-1-[4-(4-methyl-1,3-thiazol-5-yl)phenyl]ethyl]pyrrolidine-2-carboxamide] | 80 to 100% | < 600 nM
6 | CCc1cccc2cc(O)cc(-c3ncc4c(N5CC6CCC(C5)N6)nc(OCCN5CCC(CC6CCN(CC(=O)N[C@H](C(=O)N7C[C@H](O)C[C@H]7C(=O)N[C@@H](C)c7ccc(-c8scnc8C)cc7)C(C)(C)C)CC6)CC5)nc4c3F)c12 [Compound 274, (2S,4R)-1-[(2S)-2-(2-{4-[(1-{2-[(4-{3,8-diazabicyclo[3.2.1]octan-3-yl}-7-(8-ethyl-3-hydroxynaphthalen-1-yl)-8-fluoropyrido[4,3-d]pyrimidin-2-yl)oxy]ethyl}piperidin-4-yl)methyl]piperidin-1-yl}acetamido)-3,3-dimethylbutanoyl]-4-hydroxy-N-[(1S)-1-[4-(4-methyl-1,3-thiazol-5-yl)phenyl]ethyl]pyrrolidine-2-carboxamide] | 60 to 80% | < 600 nM
7 | CCc1cccc2cc(O)cc(-c3ncc4c(N5CC6CCC(C5)N6)nc(OCCN5CCC(CC6CN(c7cnc(C(=O)N[C@H](C(=O)N8C[C@H](O)C[C@H]8C(=O)N[C@@H](C)c8ccc(-c9scnc9C)cc8)C(C)(C)C)cn7)C6)CC5)nc4c3F)c12 [Compound 279] | 60 to 80% | < 600 nM
8 | CCc1cccc2cc(O)cc(-c3ncc4c(N5CC6CCC(C5)N6)nc(OC[C@@H]5CC[C@@H](COC(=O)N6CCN(c7cc([C@@H](C(=O)N8C[C@H](O)C[C@H]8C(=O)N[C@@H](C)c8ccc(-c9scnc9C)cc8)C(C)C)on7)C[C@@H]6C)N5C)nc4c3F)c12 [Compound 280, [(2S,5S)-5-[[4-(3,8-diazabicyclo[3.2.1]octan-3-yl)-7-(8-ethyl-3-hydroxy-1-naphthyl)-8-fluoro-pyrido[4,3-d]pyrimidin-2-yl]oxymethyl]-1-methyl-pyrrolidin-2-yl]methyl (2S)-4-[5-[(1S)-1-[(2S,4R)-4-hydroxy-2-[[(1S)-1-[4-(4-methylthiazol-5-yl)phenyl]ethyl]carbamoyl]pyrrolidine-1-carbonyl]-2-methyl-propyl]isoxazol-3-yl]-2-methyl-piperazine-1-carboxylate] | 20 to 60% | 600 to 1000 nM
9 | CCc1cccc2cc(O)cc(-c3ncc4c(N5CCCCCC5)nc(OC[C@]56CCCN5[C@H](COC(=O)N5CCC(Oc7cc([C@@H](C(=O)N8C[C@H](O)C[C@H]8C(=O)N[C@@H](C)c8ccc(-c9scnc9C)cc8)C(C)C)on7)CC5)CC6)nc4c3F)c12 [Compound 282, [(3S,8R)-8-[[4-(azepan-1-yl)-7-(8-ethyl-3-hydroxy-1-naphthyl)-8-fluoro-pyrido[4,3-d]pyrimidin-2-yl]oxymethyl]-1,2,3,5,6,7-hexahydropyrrolizin-3-yl]methyl 4-[5-[(1S)-1-[(2S,4R)-4-hydroxy-2-[[(1S)-1-[4-(4-methylthiazol-5-yl)phenyl]ethyl]carbamoyl]pyrrolidine-1-carbonyl]-2-methyl-propyl]isoxazol-3-yl]oxypiperidine-1-carboxylate] | < 20% | 600 to 1000 nM
10 | CCc1cccc2cc(O)cc(-c3ncc4c(N5CCCCCC5)nc(OC[C@]56CCCN5[C@H](COC(=O)N5CC7(C5)CN(c5cc([C@H](C(=O)N8C[C@H](O)C[C@H]8C(=O)N[C@@H](C)c8ccc(-c9scnc9C)cc8)C(C)C)on5)C7)CC6)nc4c3F)c12 [Compound 283, [(3S,8R)-8-[[4-(azepan-1-yl)-7-(8-ethyl-3-hydroxy-1-naphthyl)-8-fluoro-pyrido[4,3-d]pyrimidin-2-yl]oxymethyl]-1,2,3,5,6,7-hexahydropyrrolizin-3-yl]methyl 6-[5-[(1R)-1-[(2S,4R)-4-hydroxy-2-[[(1S)-1-[4-(4-methylthiazol-5-yl)phenyl]ethyl]carbamoyl]pyrrolidine-1-carbonyl]-2-methyl-propyl]isoxazol-3-yl]-2,6-diazaspiro[3.3]heptane-2-carboxylate] | 80 to 100% | < 600 nM
11 | CCc1cccc2cc(O)cc(-c3ncc4c(N5CCCCCC5)nc(OC[C@]56CCCN5[C@H](COC(=O)N5CC7(C5)CN(c5cc([C@@H](C(=O)N8C[C@H](O)C[C@H]8C(=O)N[C@@H](C)c8ccc(-c9scnc9C)cc8)C(C)C)on5)C7)CC6)nc4c3F)c12 [Compound 284, [(3S,8R)-8-[[4-(azepan-1-yl)-7-(8-ethyl-3-hydroxy-1-naphthyl)-8-fluoro-pyrido[4,3-d]pyrimidin-2-yl]oxymethyl]-1,2,3,5,6,7-hexahydropyrrolizin-3-yl]methyl 6-[5-[(1S)-1-[(2S,4R)-4-hydroxy-2-[[(1S)-1-[4-(4-methylthiazol-5-yl)phenyl]ethyl]carbamoyl]pyrrolidine-1-carbonyl]-2-methyl-propyl]isoxazol-3-yl]-2,6-diazaspiro[3.3]heptane-2-carboxylate] |  | > 3000 nM
12 | Cc1ncsc1-c1ccc([C@H](C)NC(=O)[C@@H]2C[C@@H](O)CN2C(=O)[C@@H](c2cc(OC3CN(C(=O)OC[C@@H]4CC[C@@H](COc5nc(N6CC7CCC(C6)N7)c6cnc(-c7cc(O)cc(Cl)c7C7CC7)c(F)c6n5)N4C)C3)no2)C(C)C)cc1 [Compound 285] | 80 to 100% | < 600 nM
13 | CCc1cccc2cc(O)cc(-c3ncc4c(N5CCCCCC5)nc(OC[C@]56CCCN5[C@H](COC(=O)N5CCC(Oc7cc([C@H](C(=O)N8C[C@H](O)C[C@H]8C(=O)N[C@@H](C)c8ccc(-c9scnc9C)cc8)C(C)C)on7)CC5)CC6)nc4c3F)c12 [Compound 286, [(3S,8R)-8-[[4-(azepan-1-yl)-7-(8-ethyl-3-hydroxy-1-naphthyl)-8-fluoro-pyrido[4,3-d]pyrimidin-2-yl]oxymethyl]-1,2,3,5,6,7-hexahydropyrrolizin-3-yl]methyl 4-[5-[(1R)-1-[(2S,4R)-4-hydroxy-2-[[(1S)-1-[4-(4-methylthiazol-5-yl)phenyl]ethyl]carbamoyl]pyrrolidine-1-carbonyl]-2-methyl-propyl]isoxazol-3-yl]oxypiperidine-1-carboxylate] | 80 to 100% | < 600 nM
14 | Cc1ncsc1-c1ccc([C@H](C)NC(=O)[C@@H]2C[C@@H](O)CN2C(=O)[C@H](c2cc(OC3CN(C(=O)OC[C@@H]4CC[C@@H](COc5nc(N6CC7CCC(C6)N7)c6cnc(-c7cc(O)cc(Cl)c7C7CC7)c(F)c6n5)N4C)C3)no2)C(C)C)cc1 [Compound 287] | < 20% | 1000 to 3000 nM
